Source: US20230110351A1, “METHODS FOR TREATING PARKINSON'S DISEASE WITH SEPIAPTERIN” (PTC Therapeutics MP, Inc., priority 2020, published 2023)
Like-named read-outs stand apart in the source and are kept apart here.

Key:
[1] = Food effect on administration of sepiapterin: plasma sepiapterin and BH4, fasted vs fed; assay type: in vivo; details: sepiapterin 10 mg/kg oral
Description: Method: Subjects received two oral doses of sepiapterin (10 mg/kg) separated by one week in a fasted and fed state. Subjects were fed a standard high-fat (approximately 50 percent of total caloric content of the meal) and high-calorie (approximately […] calories) meal starting 30 minutes prior to receiving their second oral dose of sepiapterin on Day 8.
Sampling for PK analysis occurred predose on Days 1 and 8 (within 30 minutes before dosing) and 0.5 hr, 1 hr, 2 hr, 4 hr, 8 hr, 12 hr, and 24 hr after the doses on Days 1 and 8. The blood concentrations of sepiapterin and BH4 were analyzed by MNG Labs.

[2] = assay type: in vivo
Description: Method: Twelve subjects were given a single dose (10 mg/kg) of sepiapterin under fasting conditions and then 7 days later under fed conditions. Standard definitions of adverse events (AE) were used. All-cause AE were those that occurred at any time; treatment-emergent adverse events (TEAE) were those that occurred at or after the time of administration of study treatment. TEAEs related to study drug were based on the opinion of the investigator. Serious AE were defined as life threatening or caused death, hospitalization or prolongation of existing hospitalization, or were a persistent or significant disability/incapacity or a substantial disruption of the ability to conduct normal life functions, or a congenital anomaly/birth defect.

[3] = CSF levels of sepiapterin, BH4, BH2, HVA and 5-HIAA after administration of sepiapterin; assay type: in vivo
Description: The cerebrospinal fluid (CSF) of selected subjects was collected via lumbar puncture on Day1 (before dose) and on Day 7 (i.e., following daily dosing for 7 days) approximately 30 minutes from time of the maximum observed plasma BH4 concentration (Tmax) as determined from the blood analysis. The cerebral spinal fluid (CSF) was analyzed. Descriptive statistics are provided to characterize any changes in neurotransmitter metabolism between the Day 1, and Day 7 sample results. Method: Analyses were conducted in CSF samples of subjects administered 60 mg/kg sepiapterin or placebo. The following analytes were measured: sepiapterin, BH4, BH2, homovanillic acid (HVA), and 5-hydroxyindoleacetic acid (HIAA). Descriptive (n, mean, SD, median, minimum, maximum) statistics for these analytes at Day 1 and Day 7+/−30 minutes from Tmax and change from baseline at Day 7 were determined for each analyte.

[4] = Pharmacokinetic analysis of multiple doses of sepiapterin (once daily, 7 days, fed subjects); assay type: in vivo
Source text: Methods: Three cohorts of eight fed subjects each were randomized to receive once-daily sepiapterin or placebo for 7 days in a 6:2 ratio. A sentinel dose strategy was also used for administration of the highest sepiapterin dose.

[5] = Pharmacokinetic parameters for BH4 after single dose of sepiapterin or BH4 in fasted subjects; assay type: in vivo
Description: Six subjects received sepiapterin in each group and three subjects received BH4 in each group where this treatment was administered.
Values shown are means of plasma concentrations of BH4 following administration at the doses shown.

[6] = 60 mg/kg sepiapterin arm, Day 1 (before dose)
[7] = 60 mg/kg sepiapterin, Day 7, +/-30 minutes from BH4 Tmax
[8] = 60 mg/kg sepiapterin, Day 7, same subject
[9] = Day 1 pre-dose, one subject with low baseline
[10] = human, plasma, po, 5 mg/kg, sepiapterin 5 mg/kg once daily, Day 1
[11] = human, plasma, po, 5 mg/kg, sepiapterin 5 mg/kg once daily, Day 7
[12] = human, plasma, po, 20 mg/kg, sepiapterin 20 mg/kg once daily, Day 1
[13] = human, plasma, po, 20 mg/kg, sepiapterin 20 mg/kg once daily, Day 7
[14] = human, plasma, po, 60 mg/kg, sepiapterin 60 mg/kg once daily, Day 1
[15] = human, plasma, po, 60 mg/kg, sepiapterin 60 mg/kg once daily, Day 7

## C[C@H](O)C(=O)C1=Nc2c(nc(N)[nH]c2=O)NC1 [sepiapterin]
[1]; human, plasma, fasted, 0 h (predose), read-out: Sepiapterin Concentration in Plasma, Maximum
  concentration at 0 h: 0 nM
[1]; human, plasma, fasted, 0.5 h, read-out: Sepiapterin Concentration in Plasma, Minimum
  concentration at 0.5 h: 0 nM
[1]; human, plasma, fasted, 4 h, read-out: Sepiapterin Concentration in Plasma, Minimum
  concentration at 4 h: 0 nM
[1]; human, plasma, fasted, 8 h, read-out: Sepiapterin Concentration in Plasma, Maximum
  concentration at 8 h: 0 nM
[1]; human, plasma, fasted, 12 h, read-out: Sepiapterin Concentration in Plasma, Maximum
  concentration at 12 h: 0 nM
[1]; human, plasma, fasted, 24 h, read-out: Sepiapterin Concentration in Plasma, Maximum
  concentration at 24 h: 0 nM
[1]; human, plasma, fed, 1 h, read-out: Sepiapterin Concentration in Plasma, Minimum
  concentration at 1 h: 0 nM
[1]; human, plasma, fed, 2 h, read-out: Sepiapterin Concentration in Plasma, Minimum
  concentration at 2 h: 0 nM
[1]
  Cmax of BH4 in the plasma, fed compared to fasted: much higher
  Cmax of sepiapterin in the plasma, fed compared to fasted: much lower
  Geometric mean ratio (fasted/fed, 90% CI) for plasma sepiapterin AUClast: 1.29 (0.84 to 2.00)
  Geometric mean ratio (fasted/fed, 90% CI) for plasma sepiapterin Cmax: 1.57 (1.21 to 2.0)
[1]; fasted, 0 h (predose)
  Sepiapterin Concentration in Plasma, Mean: 0 nM
  Sepiapterin Concentration in Plasma, Median: 0 nM
[1]; fasted, 0 h (predose), read-out: Sepiapterin Concentration in Plasma, Minimum
  concentration at 2 h: 0 nM
[1]; fasted, 8 h
  Sepiapterin Concentration in Plasma, Mean: 0 nM
  Sepiapterin Concentration in Plasma, Median: 0 nM
[1]; fasted, 8 h, read-out: Sepiapterin Concentration in Plasma, Minimum
  concentration at 2 h: 0 nM
[1]; fasted, 12 h
  Sepiapterin Concentration in Plasma, Mean: 0 nM
  Sepiapterin Concentration in Plasma, Median: 0 nM
[1]; fasted, 12 h, read-out: Sepiapterin Concentration in Plasma, Minimum
  concentration at 2 h: 0 nM
[1]; fasted, 24 h
  Sepiapterin Concentration in Plasma, Mean: 0 nM
  Sepiapterin Concentration in Plasma, Median: 0 nM
[1]; fasted, 24 h, read-out: Sepiapterin Concentration in Plasma, Minimum
  concentration at 2 h: 0 nM
[1]; fed, 0 h (predose)
  Sepiapterin Concentration in Plasma, Mean: 0 nM
  Sepiapterin Concentration in Plasma, Median: 0 nM
[1]; fed, 0 h (predose), read-out: Sepiapterin Concentration in Plasma, Maximum
  concentration at 24 h: 0 nM
[1]; fed, 0 h (predose), read-out: Sepiapterin Concentration in Plasma, Minimum
  concentration at 2 h: 0 nM
[1]; fed, 0.5 h
  Sepiapterin Concentration in Plasma, Median: 0 nM
[1]; fed, 0.5 h, read-out: Sepiapterin Concentration in Plasma, Minimum
  concentration at 2 h: 0 nM
[1]; fed, 4 h, read-out: Sepiapterin Concentration in Plasma, Minimum
  concentration at 2 h: 0 nM
[1]; fed, 8 h
  Sepiapterin Concentration in Plasma, Median: 0 nM
[1]; fed, 8 h, read-out: Sepiapterin Concentration in Plasma, Minimum
  concentration at 2 h: 0 nM
[1]; fed, 12 h
  Sepiapterin Concentration in Plasma, Mean: 0 nM
  Sepiapterin Concentration in Plasma, Median: 0 nM
[1]; fed, 12 h, read-out: Sepiapterin Concentration in Plasma, Maximum
  concentration at 24 h: 0 nM
[1]; fed, 12 h, read-out: Sepiapterin Concentration in Plasma, Minimum
  concentration at 2 h: 0 nM
[1]; fed, 24 h
  Sepiapterin Concentration in Plasma, Mean: 0 nM
  Sepiapterin Concentration in Plasma, Median: 0 nM
[1]; fed, 24 h, read-out: Sepiapterin Concentration in Plasma, Maximum
  concentration at 24 h: 0 nM
[1]; fed, 24 h, read-out: Sepiapterin Concentration in Plasma, Minimum
  concentration at 2 h: 0 nM
[2]; human, in vivo, 10 mg/kg
  TEAE: 4
  TEAE related to study drug: 1
  ≥1 AE: 5
[2]; single dose 10 mg/kg
  Incidence of adverse events, fed compared to fasted subjects: decreased incidence of adverse events
[3]; [6]
  5-HIAA Mean Concentration in CSF: 14.6 ng/mL
  HVA Mean Concentration in CSF: 32.3 ng/mL
  Sepiapterin Mean Concentration in CSF: 0 ng/mL
[3]; 60 mg/kg sepiapterin, Day 1 or Day 7 +/-30 minutes from BH4 Tmax
  Sepiapterin in the CSF: not detected
[3]; 60 mg/kg sepiapterin, Day 7
  Change in CSF concentration of 5-HIAA relative to Day 1: -1.142 ng/mL
[3]; [7]
  5-HIAA Mean Concentration in CSF: 13.4 ng/mL
  HVA Mean Concentration in CSF: 33.7 ng/mL
  Sepiapterin Mean Concentration in CSF: 0 ng/mL
[3]; 60 mg/kg sepiapterin, Day 7, increase
  Change in CSF concentration of HVA relative to Day 1: 1.378 ng/mL
[3]; [8]
  CSF 5-HIAA concentration, one subject: 9.53 ng/mL
  CSF HVA concentration, one subject: 29.93 ng/mL
[3]; [9]
  CSF 5-HIAA concentration, one subject: 3.69 ng/mL
  CSF HVA concentration, one subject: 10.02 ng/mL
[4]; [10]
  Cmax: 0.6 ng/mL
  Tmax: 3 h
[4]; human, plasma, po, 5 mg/kg, sepiapterin 5 mg/kg once daily, Day 1, read-out: AUC0-inf of sepiapterin
  AUC(0-inf): 1 ng·h/mL
[4]; [11]
  Cmax: 0.6 ng/mL
  Tmax: 3 h
[4]; human, plasma, po, 5 mg/kg, sepiapterin 5 mg/kg once daily, Day 7, read-out: AUC0-inf of sepiapterin
  AUC(0-inf): 0.7 ng·h/mL
[4]; [12]
  Cmax: 1.2 ng/mL
  Tmax: 2.6 h
[4]; human, plasma, po, 20 mg/kg, sepiapterin 20 mg/kg once daily, Day 1, read-out: AUC0-inf of sepiapterin
  AUC(0-inf): 3.9 ng·h/mL
[4]; [13]
  Cmax: 1.3 ng/mL
  Tmax: 2.7 h
[4]; human, plasma, po, 20 mg/kg, sepiapterin 20 mg/kg once daily, Day 7, read-out: AUC0-inf of sepiapterin
  AUC(0-inf): 4.3 ng·h/mL
[4]; [14]
  Cmax: 2.7 ng/mL
  Tmax: 3.3 h
[4]; human, plasma, po, 60 mg/kg, sepiapterin 60 mg/kg once daily, Day 1, read-out: AUC0-inf of sepiapterin
  AUC(0-inf): 21.2 ng·h/mL
[4]; [15]
  Cmax: 2.8 ng/mL
  Tmax: 3 h
[4]; human, plasma, po, 60 mg/kg, sepiapterin 60 mg/kg once daily, Day 7, read-out: AUC0-inf of sepiapterin
  AUC(0-inf): 16 ng·h/mL
[4]; human, plasma, po, sepiapterin 60 mg/kg once daily, Day 1, read-out: AUC0-24 of sepiapterin
  AUC(0-t): 23 ng·h/mL
[4]; once daily for 7 days
  Drug accumulation (plasma sepiapterin and BH4 after 1 and 7 days of treatment): no drug accumulation
[5]
  AUC0-24 and AUC0-inf of BH4, subjects administered sepiapterin compared to subjects administered BH4: much higher
